Key:
[1] = test system: monocytes isolated from mouse bone marrow treated with RANKL; assay: Osteoclast differentiation inhibition, TRAP staining and assay; assay type: cell-based; settings: 10 μM; RANKL; TRAP staining, Image J
Experimental: Macrophages were isolated from bone marrow of 8-week old C57BL/6J mice, and seeded on a 96-well plate in an amount of 1×10^4 cells per well, followed by treating the cells with osteoclast differentiation factors M-CSF and RANKL at 30 ng/ml and 50 ng/ml, respectively. At the same time, the compounds were used for treatment, followed by culturing the cells for 3 to 4 days. Thereafter, differentiation influence was evaluated through TRAP staining and cell counting. Specific experimental procedures and results are as follows.
The bone marrow of a 10-week-old female mouse was isolated from the hip bone, femur and tibia, and incubated in α-MEM medium (Gibco, 12561-056, 10% fetal bovine serum, 1% penicillin/streptomycin) containing macrophage colony stimulating factor (M-CSF, PeproTech, 315-02, 30 ng/ml) for […] so as to isolate only monocytes. The isolated monocytes were treated with receptor activator of nuclear factor kappa B ligand (RANKL, PeproTech, 315-11, 50 ng/ml) to induce osteoclast differentiation. When a morphology of fused multinuclear cells began to appear from day 3 after treatment with RANKL, the cells were differentiated into giant multinuclear cells for 4 to 6 days (see FIG. 1), and dead by cell apoptosis after 6 days.
During RANKL treatment, each PMSA compound was also used for treatment, followed by culturing the cells for 3 or 5 days to confirm the effects of inhibiting osteoclast differentiation.
1×10^4 monocytes isolated from mouse bone marrow were put into a 96-well plate and treated with RANKL and PMSA together to confirm the effect of each PMSA on osteoclast differentiation ability. Each PMSA was used for treatment by concentration. The activity of tartrate-resistant acid phosphatase (TRAP), which has increased expression during osteoclast differentiation, was confirmed using a TRAP activity assay kit (Cosmo Bio, PMC-AK04F-COS) (see FIG. 2).
Further, after staining, the multinuclear cells formed during osteoclast differentiation were observed under a microscope, and each well was photographed and a differentiation area ratio per total area was determined using Image J software. […] Specifically, at 10 μM concentration, cells were differentiated into osteoclasts by 30% when using #25 (PMSA-3-Ac), similarly, 74% using #25-C (PMSA-Ph), 63% using #25-N (PMSA-PhN), 41% using #25-PhO (PMSA-O), and only 1% using #25-D12 (PMSA-2-OMe-5-Cl), respectively. […]

[2] = test system: mouse bone marrow cells; assay: Bone resorption assay on calcium phosphate coated plate; assay type: cell-based; settings: 6 days; for bone resorption ability: compared to Ctrl
Experimental: Bone resorption ability was confirmed using a bone resorption assay kit (Cosmo Rio, CSR-BRA). 2.5×10^4 mouse bone marrow cells per well were put into a 48-well plate coated with calcium phosphate, followed by treating the cells with PMSA to perform differentiation for 6 days. After 6 days, a fluorescence absorbance was measured with the culture medium to confirm the bone absorption ability. Further, decomposition degree of calcium phosphate was photographed a microscope to confirm the bone resorption ability. […] In FIG. 4, BMMs refer to monocytes that are not differentiated osteoclasts.
Further, the bone resorption ability was confirmed using a bone resorption assay kit (Cosmo Bio, CSR-BRA). 2.5×10^4 mouse bone marrow cells per well were put into a 48-well plate coated with calcium phosphate, and were differentiated for 6 days while being treated with PSTP-3,5-Me. After 6 days, the fluorescence absorbance was measured with the culture medium to confirm the bone absorption ability.

[3] = Microsomal stability (H); assay type: in vitro ADME, human; settings: H of H/M; criterion >60%
Experimental: (§1) In order to analyze the drug metabolism of PMSA compound, ADME evaluation was requested to the Daegu-Gyeongbuk Advanced Medical industry Promotion Foundation (DGMIF). Metabolic stability of drugs using liver microsomes (microsomal stability), drug metabolism inhibitory ability by five CYP450 enzymes, plasma metabolism (plasma stability), plasma protein binding, and intestinal permeability of drugs (PAMPA, parallel artificial membrane permeability assay) were analyzed. […] Further, it was confirmed that the permeability resistance was excellent (see Table 3 below). On the other hand, for one of PMSA derivatives, that is, 2-(N-(3,5-dimethylphenyl)methylsulfinamido)-N-(2 (phenylthio)phenyl)propanamide (#25-D5), intestinal permeability of the drug (PAMPA) was not measured.

[4] = Microsomal stability (M); assay type: in vitro ADME, mouse; settings: M of H/M; criterion >60%
Experimental: as §1

[5] = molecular target: T1, CYP1A2 (Homo sapiens, UniProt P05177); assay: CYP450 drug metabolism inhibition, 1A2; assay type: in vitro ADME; settings: criterion remaining activity >50%
T1 sequence (P05177 1-516): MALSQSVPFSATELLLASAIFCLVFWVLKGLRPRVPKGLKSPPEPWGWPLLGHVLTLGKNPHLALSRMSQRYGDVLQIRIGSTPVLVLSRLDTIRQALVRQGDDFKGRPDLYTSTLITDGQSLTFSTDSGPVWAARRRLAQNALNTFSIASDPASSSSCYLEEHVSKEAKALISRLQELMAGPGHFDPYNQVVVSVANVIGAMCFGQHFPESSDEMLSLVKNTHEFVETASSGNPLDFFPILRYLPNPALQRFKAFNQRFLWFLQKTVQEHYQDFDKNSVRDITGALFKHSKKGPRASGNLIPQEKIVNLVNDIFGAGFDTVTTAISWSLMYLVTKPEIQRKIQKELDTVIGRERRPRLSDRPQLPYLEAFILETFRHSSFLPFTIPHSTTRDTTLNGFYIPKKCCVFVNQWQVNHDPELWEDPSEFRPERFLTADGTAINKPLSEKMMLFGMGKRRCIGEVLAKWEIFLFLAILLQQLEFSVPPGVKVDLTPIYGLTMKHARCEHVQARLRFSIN
Experimental: as §1

[6] = molecular target: CYP2C9 (Homo sapiens, UniProt P11712); assay: CYP450 drug metabolism inhibition, 2C9; assay type: in vitro ADME; settings: criterion remaining activity >50%
Experimental: as §1

[7] = molecular target: CYP2C19 (Homo sapiens, UniProt P33261); assay: CYP450 drug metabolism inhibition, 2C19; assay type: in vitro ADME; settings: criterion remaining activity >50%
Experimental: as §1

[8] = molecular target: CYP2D6 (Homo sapiens, UniProt P10635); assay: CYP450 drug metabolism inhibition, 2D6; assay type: in vitro ADME; settings: criterion remaining activity >50%
Experimental: as §1

[9] = molecular target: CYP3A4 (Homo sapiens, UniProt P08684); assay: CYP450 drug metabolism inhibition, 3A4; assay type: in vitro ADME; settings: criterion remaining activity >50%
Experimental: as §1

[10] = Plasma stability; assay type: in vitro ADME
Experimental: as §1

[11] = test system: plasma proteins; assay: Plasma protein binding (PPB); assay type: in vitro ADME, Human; settings: for binding with plasma proteins: conclusion from ADME evaluation
Experimental: as §1

[12] = PAMPA, parallel artificial membrane permeability assay; assay type: in vitro ADME; settings: for Papp: PAMPA, criterion >40, read-out: PAMPA (>40) Pe; for permeability resistance: conclusion from ADME evaluation
Experimental: as §1

[13] = ADME evaluation (DGMIF), overall conclusion on toxicity; assay type: in vitro ADME; settings: conclusion from ADME evaluation
Experimental: as §1

CYP3A4, sequence (P08684 whole entry): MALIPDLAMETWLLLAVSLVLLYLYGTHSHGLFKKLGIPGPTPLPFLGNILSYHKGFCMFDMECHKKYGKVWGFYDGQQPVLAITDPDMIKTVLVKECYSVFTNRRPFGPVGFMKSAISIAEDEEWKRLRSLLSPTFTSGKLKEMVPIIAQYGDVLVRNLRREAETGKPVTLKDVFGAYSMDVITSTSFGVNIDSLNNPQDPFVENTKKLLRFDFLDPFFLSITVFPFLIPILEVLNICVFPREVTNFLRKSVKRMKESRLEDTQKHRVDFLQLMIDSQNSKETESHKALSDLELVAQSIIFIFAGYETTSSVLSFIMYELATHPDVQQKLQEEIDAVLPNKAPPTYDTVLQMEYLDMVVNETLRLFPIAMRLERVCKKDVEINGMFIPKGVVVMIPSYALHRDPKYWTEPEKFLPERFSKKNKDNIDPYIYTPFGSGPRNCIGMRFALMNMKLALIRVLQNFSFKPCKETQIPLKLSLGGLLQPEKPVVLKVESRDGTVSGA
CYP2C9, sequence (P11712 whole entry): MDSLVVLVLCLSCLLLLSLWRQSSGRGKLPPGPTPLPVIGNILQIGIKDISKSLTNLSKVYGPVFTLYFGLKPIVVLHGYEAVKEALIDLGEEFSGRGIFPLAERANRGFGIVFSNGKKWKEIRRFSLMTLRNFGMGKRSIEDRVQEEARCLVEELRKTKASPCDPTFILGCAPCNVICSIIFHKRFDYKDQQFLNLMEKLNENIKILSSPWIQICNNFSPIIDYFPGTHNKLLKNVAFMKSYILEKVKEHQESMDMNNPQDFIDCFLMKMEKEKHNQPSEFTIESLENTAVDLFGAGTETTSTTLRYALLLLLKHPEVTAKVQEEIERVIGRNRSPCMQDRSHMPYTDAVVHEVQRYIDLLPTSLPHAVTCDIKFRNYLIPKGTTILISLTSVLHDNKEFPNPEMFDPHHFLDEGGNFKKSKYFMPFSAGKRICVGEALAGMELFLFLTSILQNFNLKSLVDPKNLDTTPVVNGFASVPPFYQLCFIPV
CYP2C19, sequence (P33261 whole entry): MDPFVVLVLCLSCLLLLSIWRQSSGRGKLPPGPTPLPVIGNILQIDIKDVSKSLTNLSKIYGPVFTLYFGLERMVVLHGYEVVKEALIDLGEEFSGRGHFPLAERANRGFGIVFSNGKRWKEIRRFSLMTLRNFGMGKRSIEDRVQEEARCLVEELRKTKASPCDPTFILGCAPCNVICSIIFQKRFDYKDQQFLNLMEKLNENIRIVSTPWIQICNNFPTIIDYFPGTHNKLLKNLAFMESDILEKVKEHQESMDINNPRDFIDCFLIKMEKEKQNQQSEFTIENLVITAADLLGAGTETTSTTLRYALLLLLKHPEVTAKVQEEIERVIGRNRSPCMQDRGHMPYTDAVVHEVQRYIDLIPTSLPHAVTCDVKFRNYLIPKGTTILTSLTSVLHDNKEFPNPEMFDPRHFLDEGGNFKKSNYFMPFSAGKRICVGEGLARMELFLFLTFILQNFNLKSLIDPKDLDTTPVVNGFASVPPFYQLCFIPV
CYP2D6, sequence (P10635 whole entry): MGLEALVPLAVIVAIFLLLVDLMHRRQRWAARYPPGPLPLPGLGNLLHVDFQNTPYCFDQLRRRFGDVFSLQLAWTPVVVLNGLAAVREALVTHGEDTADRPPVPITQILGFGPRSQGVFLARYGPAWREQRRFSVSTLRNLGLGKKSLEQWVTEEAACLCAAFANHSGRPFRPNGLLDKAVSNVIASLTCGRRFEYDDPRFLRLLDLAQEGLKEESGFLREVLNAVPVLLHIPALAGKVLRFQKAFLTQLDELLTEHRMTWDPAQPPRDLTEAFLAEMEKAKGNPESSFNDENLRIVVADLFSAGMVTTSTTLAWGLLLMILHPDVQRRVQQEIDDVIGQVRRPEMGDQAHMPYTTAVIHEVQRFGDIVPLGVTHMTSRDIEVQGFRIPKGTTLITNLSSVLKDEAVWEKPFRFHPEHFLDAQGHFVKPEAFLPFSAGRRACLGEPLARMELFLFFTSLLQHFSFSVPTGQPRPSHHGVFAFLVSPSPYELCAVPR

| Structure (SMILES) | cells differentiated into osteoclasts (differentiation area ratio per total area) [1] | bone resorption ability [2] | Microsomal stability (>60%) H [3] | Microsomal stability (>60%) M [4] | CYP 1A2 remaining activity [5] | CYP 2C9 remaining activity [6] | CYP 2C19 remaining activity [7] | CYP 2D6 remaining activity [8] | CYP 3A4 remaining activity [9] | Plasma S Human 30 min (% Remaining) [10] | Plasma S Human 120 min (% Remaining) [10] | PPB Human (%, bound) [11] | binding with plasma proteins [11] | Papp [12] | permeability resistance [12] | toxicity [13] | decrease in bone resorption ability ([2]; compared to differentiated osteoclasts (Ctrl) not treated, fluorescence absorbance) |
| --- | --- | --- | --- | --- | --- | --- | --- | --- | --- | --- | --- | --- | --- | --- | --- | --- | --- |
| CC(=O)c1cccc(N(CC(=O)Nc2ccccc2Nc2ccccc2)S(C)(=O)=O)c1 [#25-N, 2-(N-(3-acetylphenyl)methylsulfonamido)-N-(2-(phenylamino)phenyl)acetamide] | 63% | slightly decreased | 3.3% | 4.0% | 81.6% | 47% | 9% | 12.6% | 43.1% | 100/100 % Remaining | 100/100 % Remaining | 97.9 %, bound | good | 47.2 ×10⁻⁶ cm/s | excellent | low toxicity | – |
| CC(=O)c1cccc(N(CC(=O)Nc2ccccc2Oc2ccccc2)S(C)(=O)=O)c1 [#25-O, 2-(N-(3-acetylphenyl)methylsulfonamido)-N-(2-phenoxyphenyl)acetamide] | 41% | slightly decreased | 12.5% | 3.1% | 100% | 49.7% | 10.4% | 53.1% | 70.1% | 94.3 % Remaining | 96.4 % Remaining | 98.4 %, bound | good | 66.2 ×10⁻⁶ cm/s | excellent | low toxicity | – |
| CC(=O)c1cccc(N(CC(=O)Nc2ccccc2-c2ccccc2)S(C)(=O)=O)c1 [#25-C, N-([1,1′-biphenyl]-2-yl)-2-(N-(3-acetylphenyl)methylsulfonamido)acetamide] | 74% | – | 50.6% | 3.7% | 96.8% | 67.2% | 6.9% | 18.3% | 72% | 100/100 % Remaining | 100/100 % Remaining | 97.9 %, bound | good | 76.6 ×10⁻⁶ cm/s | excellent | low toxicity | 13.4% |

Source: patent publication US12691084B2, “Pharmaceutical composition for preventing or treating bone diseases” (INDUSTRY FOUNDATION OF CHONNAM NATIONAL UNIVERSITY, priority 2019, dated 2026)
